Experimental data published in patent EP0228113A2 (priority 1985, dated 1987).
Converted amounts (≈) assume the structure as drawn.

Legend:
Assay type in all cases: cell-based
[1] = tested on: L.oakridgensis; assay: microbe, parasite or virus in culture; details: pH 6; 48 hours; 37°C
[2] = tested on: L.pneumophila gr. 8; assay: microbe, parasite or virus in culture; details: Legionella pneumophila, GR.8, 48 h, pH 6
[3] = tested on: L.pneumophila gr. 3; assay: microbe, parasite or virus in culture; details: Legionella pneumophila, GR.3, 48 h, pH 6
[4] = tested on: L.bozemanii gr. 1; assay: microbe, parasite or virus in culture; details: pH 6; 48 hours; 37°C
[5] = tested on: L.pneumophila gr. 2; assay: microbe, parasite or virus in culture; details: Legionella pneumophila, GR.2, 48 h, pH 6
[6] = tested on: L.pneumophila gr. 7; assay: microbe, parasite or virus in culture; details: Legionella pneumophila, GR.7, 48 h, pH 6
[7] = tested on: L.pneumophila gr.10; assay: microbe, parasite or virus in culture; details: Legionella pneumophila, GR.10, 48 h, pH 6
[8] = tested on: L.pneumophila gr. 5; assay: microbe, parasite or virus in culture; details: Legionella pneumophila, GR.5, 48 h, pH 6
[9] = tested on: Myxococcus xanthus; assay: MIC determination on casitone agar (Example III); details: 96 h, pH 7.6, casitone agar pH 7,6, four days, 30°C
[10] = tested on: L.pneumophila gr. 9; assay: microbe, parasite or virus in culture; details: Legionella pneumophila, GR.9, 48 h, pH 6
[11] = tested on: L.dumoffii; assay: microbe, parasite or virus in culture; details: pH 6; 48 hours; 37°C
[12] = tested on: L.longbeachae gr. 2; assay: microbe, parasite or virus in culture; details: pH 6; 48 hours; 37°C
[13] = tested on: L.jordanis; assay: microbe, parasite or virus in culture; details: pH 6; 48 hours; 37°C
[14] = tested on: L.longbeachae gr. 1; assay: microbe, parasite or virus in culture; details: pH 6; 48 hours; 37°C
[15] = tested on: L.pneumophila gr. 4; assay: microbe, parasite or virus in culture; details: Legionella pneumophila, GR.4, 48 h, pH 6
[16] = tested on: L.pneumophila gr. 6; assay: microbe, parasite or virus in culture; details: Legionella pneumophila, GR.6, 48 h, pH 6
[17] = tested on: L.wadsworthii; assay: microbe, parasite or virus in culture; details: pH 6; 48 hours; 37°C
[18] = tested on: L.micdadei; assay: microbe, parasite or virus in culture; details: pH 6; 48 hours; 37°C
[19] = tested on: L.gormanii; assay: MIC determination on buffered charcoal yeast-extract agar (Example I); details: Fluoribacter gormanii, pH 6,9, 48 hours, 37°C
[20] = tested on: Legionella pneumophila gr. 1; assay: microbe, parasite or virus in culture; details: GR.1, 96 h, pH 6
[21] = tested on: Legionella pneumophila gr. 5; assay: microbe, parasite or virus in culture; details: GR.5, 96 h, pH 6

Row | SMILES | MIC [1] [µg/mL] | MIC [2] [µg/mL] | MIC [3] [µg/mL] | MIC [4] [µg/mL] | MIC [5] [µg/mL] | MIC [6] [µg/mL] | MIC [7] [µg/mL] | MIC [8] [µg/mL] | MIC [9] [µg/mL] | MIC [10] [µg/mL] | MIC [11] [µg/mL] | MIC [12] [µg/mL] | MIC [13] [µg/mL] | MIC [14] [µg/mL] | MIC [15] [µg/mL] | MIC [16] [µg/mL] | MIC [17] [µg/mL] | MIC [18] [µg/mL] | MIC [19] [µg/mL] | MIC [20] [µg/mL] | other results
1 | Clc1ccccc1C(c1ccc(-c2ccccc2)cc1)n1ccnc1 (stereo not drawn) [lombazole] | 64 (≈ 186 µM) | 128 (≈ 371 µM) | 128 (≈ 371 µM) | 128 (≈ 371 µM) | 128 (≈ 371 µM) | 128 (≈ 371 µM) | 64 (≈ 186 µM) | 64 (≈ 186 µM) | 2 (≈ 5.8 µM) | 128 (≈ 371 µM) | 64 (≈ 186 µM) | 64 (≈ 186 µM) | 64 (≈ 186 µM) | 64 (≈ 186 µM) | 128 (≈ 371 µM) | 64 (≈ 186 µM) | 32 (≈ 92.8 µM) | 64 (≈ 186 µM) | 64 (≈ 186 µM) |  | 
2 | OC(c1ccc(Cl)cc1)(c1cncnc1)c1ccccc1Cl (stereo not drawn) [fenarimol] |  |  |  |  |  |  |  |  |  |  |  |  |  |  |  |  |  |  |  | 100 (≈ 302 µM) | MIC [21]: 100 µg/mL (≈ 302 µM)
3 | CCC1COC(Cn2cncn2)(c2ccc(Cl)cc2Cl)O1 (stereo not drawn) [etaconazole] |  |  |  |  |  |  |  |  |  |  |  |  |  |  |  |  |  |  |  | > 100 | MIC [21]: > 100 µg/mL
4 | Clc1ccccc1C(c1ccccc1)(c1ccccc1)n1ccnc1 [clotrimazole] | 8 (≈ 23.2 µM) | 16 (≈ 46.4 µM) | 8 (≈ 23.2 µM) | 8 (≈ 23.2 µM) | 16 (≈ 46.4 µM) | 16 (≈ 46.4 µM) | 16 (≈ 46.4 µM) | 16 (≈ 46.4 µM) | 2 (≈ 5.8 µM) | 16 (≈ 46.4 µM) | 16 (≈ 46.4 µM) | 16 (≈ 46.4 µM) | 16 (≈ 46.4 µM) | 16 (≈ 46.4 µM) | 16 (≈ 46.4 µM) | 16 (≈ 46.4 µM) | 8 (≈ 23.2 µM) | 16 (≈ 46.4 µM) | 8 (≈ 23.2 µM) |  | 
5 | CCCCCCCCCCCCCN1CC(C)OC(C)C1 (stereo not drawn) [tridemorph] |  |  |  |  |  |  |  |  |  |  |  |  |  |  |  |  |  |  |  | 100 (≈ 336 µM) | MIC [21]: 50 µg/mL (≈ 168 µM)
6 | c1ccc(-c2ccc(C(c3ccccc3)n3ccnc3)cc2)cc1 (stereo not drawn) [bifonazole] | 64 (≈ 206 µM) | 128 (≈ 412 µM) | 128 (≈ 412 µM) | 128 (≈ 412 µM) | 128 (≈ 412 µM) | 128 (≈ 412 µM) | 128 (≈ 412 µM) | 64 (≈ 206 µM) |  | 128 (≈ 412 µM) | 64 (≈ 206 µM) | 64 (≈ 206 µM) | 64 (≈ 206 µM) | 64 (≈ 206 µM) | 128 (≈ 412 µM) | 64 (≈ 206 µM) | 32 (≈ 103 µM) | 64 (≈ 206 µM) | 128 (≈ 412 µM) |  | 
7 | Clc1ccc(COC(Cn2ccnc2)c2ccc(Cl)cc2Cl)c(Cl)c1 (stereo not drawn) [miconazole] | 64 (≈ 154 µM) | 128 (≈ 308 µM) | 128 (≈ 308 µM) | 128 (≈ 308 µM) | 128 (≈ 308 µM) | 128 (≈ 308 µM) | 128 (≈ 308 µM) | 128 (≈ 308 µM) | 2 (≈ 4.81 µM) | 128 (≈ 308 µM) | 128 (≈ 308 µM) | 128 (≈ 308 µM) | 128 (≈ 308 µM) | 128 (≈ 308 µM) | 128 (≈ 308 µM) | 128 (≈ 308 µM) | 128 (≈ 308 µM) | 128 (≈ 308 µM) | 128 (≈ 308 µM) |  | 
